Patent publication US6008219A, “Bicyclic amine derivatives and their use as anti-psychotic agents” (SmithKline Beech p.l.c., priority 1995, dated 1999)
Where a name gives a salt, the structure may show the parent alone.

What follows are molecules tested against human D3 receptor (Homo sapiens, UniProt P35462) (assay: Cytosensor Microphysiometer functional activity, antagonist mode against quinpirole (hD3-CHO cells)). Details: against 30 nM quinpirole, acidification rate, read-out: pKb values at the human D3 receptor (tested as antagonists) (converted).
Chain of human D3 receptor (P35462 whole entry): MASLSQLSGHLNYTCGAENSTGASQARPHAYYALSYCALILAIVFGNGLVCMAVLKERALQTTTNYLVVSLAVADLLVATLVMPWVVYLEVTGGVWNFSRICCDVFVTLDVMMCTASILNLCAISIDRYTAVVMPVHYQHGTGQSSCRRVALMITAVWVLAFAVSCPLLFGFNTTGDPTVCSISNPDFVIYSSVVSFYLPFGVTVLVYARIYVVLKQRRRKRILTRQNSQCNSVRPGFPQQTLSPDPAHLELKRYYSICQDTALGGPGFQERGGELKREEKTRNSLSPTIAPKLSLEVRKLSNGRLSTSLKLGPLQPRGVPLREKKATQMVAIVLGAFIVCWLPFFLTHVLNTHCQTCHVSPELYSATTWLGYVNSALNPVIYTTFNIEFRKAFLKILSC
Type: cell-based

Kb	SMILES
0.0316 to 10 nM	CCCN(CCCCNC(=O)c1ccc(-c2ccccc2)cc1)C1CCc2c(cccc2OS(C)(=O)=O)C1 (racemic) [Example 17, 5-Methanesulfonyloxy-N-(4-(4-phenylbenzoylamino)butyl)-2-(R,S)-propylamino-1,2,3,4-tetrahydronaphthalene, hydrochloride]
0.0316 to 10 nM	CCCN(CCCCNC(=O)c1ccc(-c2ccccc2)cc1)C1CCc2c(CC(=O)OCC)cccc2C1 (racemic) [Example 3bb, N-(4-(4-Phenylbenzoylamino)butyl)-6-(R,S)-propylamino-5,6,7,8-tetrahydronaphthalene-1-acetic acid, ethyl ester, hydrochloride]
0.0316 to 10 nM	CCCN(CCCCNC(=O)c1ccc(-c2ccccc2)cc1)C1CCc2c(cccc2OS(=O)(=O)C(F)(F)F)C1 (racemic) [Example 15, N-(4-(4-Phenylbenzoylamino)butyl)-2-(R,S)-propylamino-5-trifluoromethanesulfonyloxy-1,2,3,4-tetrahydronaphthalene, hydrochloride]
0.0316 to 10 nM	CCCN(CCCCNC(=O)c1ccc(-c2ccccc2)cc1)C1CCc2ccc(CC(=O)OCC)cc2C1 (racemic) [Example 3dd, N-(4-(4-Phenylbenzoylamino)butyl)-7-(R,S)-propylamino-5,6,7,8-tetrahydronaphthalene-2-acetic acid, ethyl ester, hydrochloride]
0.0316 to 10 nM	CCCN(CCCCNC(=O)c1ccc(-c2ccccc2)cc1)C1CCc2cc(CC(=O)OCC)ccc2C1 (racemic) [Example 3cc, N-(4-(4-Phenylbenzoylamino)butyl)-6-(R,S)-propylamino-5,6,7,8-tetrahydronaphthalene-2-acetic acid, ethyl ester, hydrochloride]
0.0316 to 10 nM	CCCN(CCCCNC(=O)c1ccc(-c2ccccc2)cc1)C1CCc2ccccc2C1 (racemic) [Example 10f, N-(4-(4-phenylbenzoylamino)butyl)-2-(R,S)-propylamino-1,2,3,4-tetrahydronaphthalene, hydrochloride]

More lines, now with the values behind:

SMILES	Kb
CCCN(CCCCNC(=O)c1ccc(-c2ccccc2)cc1)C1CCc2c(Cl)cccc2C1 (racemic) [Example 2k, 5-Chloro-N-(4-(4-phenylbenzoylamino)butyl)-2-(R,S)-propylamino-1,2,3,4-tetrahydronaphthalene, hydrochloride]	0.0316 to 10 nM
CCCN(CCCCNC(=O)c1ccc(-c2ccccc2)cc1)C1CCc2ccc(Cl)cc2C1 (racemic) [Example 2m, 7-Chloro-N-(4-(4-phenylbenzoylamino)butyl)-2-(R,S)-propylamino-1,2,3,4-tetrahydronaphthalene, hydrochloride]	0.0316 to 10 nM
CCCN(CCCCNC(=O)c1ccc(-c2ccccc2)cc1)C1Cc2ccccc2C1 [Example 2p, N-(4-(4-Phenylbenzoylamino)butyl)-2-propylaminoindane, hydrochloride]	0.0316 to 10 nM
CCCN(CCCCNC(=O)c1ccc(-c2ccccc2)cc1)C1CCc2cc(OC(F)(F)F)ccc2C1 (racemic) [Example 2x, N-(4-(4-Phenylbenzoylamino)butyl)-2-(R,S)-propylamino-6-trifluoromethoxy-1,2,3,4-tetrahydronaphthalene, hydrochloride]	0.0316 to 10 nM
